Values quoted from earlier work, collected in US12400737B2, “Methods of classifying diffuse large B-cell lymphoma” (CELGENE CORPORATION, priority 2018, dated 2025).

Experiments:
[1] = tested on: acute myeloid leukemia (AML); conditions: administered alone
[2] = tested on: diffuse large B-cell lymphoma (DLBCL); conditions: background statement

| Compound | response in treating AML at relapse [1] | single-agent activity in DLBCL [2] |
| --- | --- | --- |
| CT-011: anti-PD-1 antibody, a humanized antibody | failed to show response | – |
| Nc1cccc2c1CN(C1CCC(=O)NC1=O)C2=O (centres unmarked) [lenalidomide, 3-(4-amino-1-oxo-1,3-dihydro-isoindol-2-yl)-piperidine-2,6-dione] | – | significant single-agent activity |
